Columns and labels:
[1] = test system: Carrageenan-induced Paw Edema in rats; test: Carrageenan-induced paw edema test; format: in vivo, Wistar-Imamichi rats; conditions: Rattus norvegicus, oral, 3 hours after carrageenan, read-out: Inhibition Rate (%)
Description: The same test compounds were subjected to the test as those in the Randall-Selitto test of Experiment 3. Wistar-Imamichi rats (males, 6 week old, body weights: 110-120 g) were used in this test.
The method of Winter, et al. [Proc. Soc. Exp. Biol. Med. 111, 544-547, (1962)] was slightly modified to perform the test [Sankyo Annual Research Report 39, 77-111, (1989)]. The rats were fasted for 16 hours prior to use. Inflammatory edema was induced by the subcutaneous injection of 0.05 ml of a 1% carrageenan (Viscarin 402) solution into the right hind paw of the animal. The test compounds were administered orally 30 minutes before injection of carrageenan. The volume of the right hind foot was measured with a Plethysmometer (Trade mark) (Ugo-Basile Co.) just before administration of the test compound and 3 hours after injection of carrageenan to determine the edema intensity [(right foot volume after 3 hours/right foot volume before injection)-1].

[2] = test system: yeast-inflamed pain in rats; test: Analgesic effect on yeast-inflamed pain in rats (Randall-Selitto method); format: in vivo, Wistar-Imamichi rats; conditions: Rattus norvegicus, oral, pain threshold 0.5, 1 and 2 hours after administration, read-out: Efficacy Rate (No. of animals in which drug was effective/No. of animals used in test) (converted)
Description: The compound was suspended in 0.5%tragacanth and administered orally at a volume of 5 ml/kg. The control group was administered with 0.5% tragacanth only as a vehicle.
Wistar-Imamichi rats (males, 5 week old, body weights: 80-100 g) were used in this test.
The test was conducted in accordance with the method of Winter and Flataker [J. Pharmacol. Exp. Ther. 150, 165-171, (1965)], which is a modification of the original method of Randall and Selitto [Arch. Int. Pharmacodyn. Ther. 111, 405-419, (1957)]. The rats were fasted for 16 hours prior to use. Inflammation was induced by subcutaneous injection of 0.1 ml of a suspension of 20% beer yeast (Sigma) into the right hind footpad of the animal. After 4.5 hours, increasing pressure was applied to the inflamed footpad at a constant speed using an Analgesy meter (Trade mark) (Ugo-Basile Co.).
First the average of pain threshold values at each time point (0.5, 1, and 2 hr) was calculated in a control group. If a pain threshold value exceeded 2 times the control average value at the same time point even once in the drug-treated groups, then the animal was considered to indicate efficacy. Efficacy rates of the drug were estimated by the evaluation method of Blake [J. Pharm. Pharm. 19, 367-373, (1967)].

gastric mucosa = test: Irritative effect on gastric mucosa; format: in vivo, Wistar rats; conditions: oral; dose producing 50% incidence of gastric ulcers, 3.5 hours after dosing
Description: Experiments were performed according to the method described by Jahn and Adrian [Arzneim.-Forsch. 19, 36, (1969)]. Male Wistar rats weighing approximately 120 g were fasted for 16 hours before the experiment. The drugs were administered orally to rats as described in Experiment 3. Three and the half hours after dosing, the animals were killed under ether-anesthesia and the stomachs were placed into 1% of formalin. The stomach was opened by cutting along the greater curvature and the number and length of lesions were counted under a microscope (6.3×10). The ulcerogenicity in each animal was assessed according to Hitchens et. al. [Pharmacologist 9, 242, (1967)]. Incidence was determined as the rate of rats with 4 or more ulcers of more than 0.5 mm length, and UD50's (doses producing 50% incidence) were calculated from the incidence and the dose by probit (=probability unit) method.

Row | SMILES | inhibition in vivo at 50 mg/kg [1] [%] | responders at 12.5 mg/kg [2] [%] | UD50 (gastric mucosa) [mg/kg]
1 | Cc1ccc(-c2c(C)ccn2-c2ccc(S(N)(=O)=O)cc2)cc1 [Example 17, 3-Methyl-2-(4-methylphenyl)-1-(4-sulfamoylphenyl) pyrrole] | 67 |  | 
2 | Cc1ccc(-c2cc(C)cn2-c2ccc(S(N)(=O)=O)cc2)cc1 [Example 18, 4-Methyl-2-(4-methylphenyl)-1-(4-sulfamoylphenyl) pyrrole] | 53 | 100 | 
3 | NS(=O)(=O)c1ccc(-c2cccn2-c2ccc(F)cc2)cc1 [Example 19, 1-(4-Fluorophenyl)-2-(4-sulfamoylphenyl)pyrrole] | 65 | 100 | 
4 | CCc1cc(-c2ccc(OC)cc2)n(-c2ccc(S(N)(=O)=O)cc2)c1 [Example 64, 4-Ethyl-2-(4-methoxyphenyl)-1-(4-sulfamoylphenyl) pyrrole] | 60 |  | 
5 | CSc1ccc(-c2cc(C)cn2-c2ccc(S(N)(=O)=O)cc2)cc1 [Example 66, 4-Methyl-2-(4-methylthiophenyl)-1-(4-sulfamoylphenyl)pyrrole] |  | 100 | >100
6 | COc1ccc(-c2cc(C)cn2-c2ccc(S(N)(=O)=O)cc2)cc1C [Example 69, 4-Methyl-2-(4-methoxy-3-methylphenyl)-1-(4-sulfamoylphenyl)pyrrole] | 55 | 100 | >100
7 | Cc1cc(-c2ccc(Cl)c(Cl)c2)n(-c2ccc(S(N)(=O)=O)cc2)c1 [Example 70, 2-(3,4-Dichlorophenyl)-4-methyl-1-(4-sulfamoylphenyl)pyrrole] |  |  | >100
8 | COc1ccc(-c2cc(C)cn2-c2ccc(S(N)(=O)=O)cc2)cc1F [Example 71, 2-(3-Fluoro-4-methoxylphenyl)-4-methyl-1-(4-sulfamoylphenyl)pyrrole] |  | 100 | >100
9 | Cc1cc(-c2ccc(S(N)(=O)=O)cc2)n(-c2ccc(F)cc2F)c1 [Example 75, 1-(2,4-Difluorophenyl)-4-methyl-2-(4-sulfamoylphenyl)pyrrole] | 57 |  | 
10 | COc1ccc(-c2cccn2-c2ccc(S(N)(=O)=O)cc2)cc1 [Example 76, 2-(4-Methoxyphenyl)-1-(4-sulfamoylphenyl)pyrrole] | 56 |  | >100
11 | Cc1cc(-c2ccccc2)n(-c2ccc(S(N)(=O)=O)cc2)c1 [Example 77, 4-Methyl-2-phenyl-1-(4-sulfamoylphenyl)pyrrole] |  |  | >100
12 | COc1ccc(-c2cc(C)cn2-c2ccc(S(N)(=O)=O)cc2)cc1Cl [Example 79, 2-(3-Chloro-4-methoxyphenyl)-4-methyl-1-(4-sulfamoylphenyl)pyrrole] |  | 100 | >100
13 | COc1ccc(-c2cc(C)cn2-c2ccc(S(=O)(=O)NC(C)=O)cc2)cc1 [Example 82, 1-(4-Acetylaminosulfonylphenyl)-2-(4-methoxyphenyl)-4-methylpyrrole] | 78 | 100 | >100
14 | CC(=O)NS(=O)(=O)c1ccc(-n2cc(C)cc2-c2ccc(C)c(C)c2)cc1 [Example 83, 1-(4-Acetylaminosulfonylphenyl)-2-(3,4-dimethylphenyl)-4-methylpyrrole] | 70 | 100 | 
15 | CCSc1ccc(-n2cc(C)cc2-c2ccc(S(N)(=O)=O)cc2)cc1 [Example 85, 1-(4-Ethylthiophenyl)-4-methyl-2-(4-sulfamoylphenyl)pyrrole] | 73 | 100 | 
16 | Cc1cc(-c2ccc(S(N)(=O)=O)cc2)n(-c2ccc(C)c(C)c2)c1 [Example 86, 4-Methyl-1-(3,4-dimethylphenyl)-2-(4-sulfamoylphenyl)pyrrole] | 64 | 100 | 
17 | Cc1cc(C)cc(-c2cc(C)cn2-c2ccc(S(N)(=O)=O)cc2)c1 [Example 87, 4-Methyl-2-(3,5-dimethylphenyl)-1-(4-sulfamoylphenyl)pyrrole] |  | 100 | 
18 | CSc1ccc(-c2c(C)ccn2-c2ccc(S(N)(=O)=O)cc2)cc1 [Example 88, 3-Methyl-2-(4-methylthiophenyl)-1-(4-sulfamoylphenyl)pyrrole] | 61 | 100 | 
19 | Cc1cc(-c2ccc(S(N)(=O)=O)cc2)n(-c2ccc([S+](C)[O-])cc2)c1 (centres unmarked) [Example 96, 4-Methyl-1-(4-methylsulfinylphenyl)-2-(4-sulfamoylphenyl)pyrrole] | 60 |  | 
20 | COc1ccc(-n2c(Cl)ccc2-c2ccc(S(N)(=O)=O)cc2)cc1 [Example 97, 5-Chloro-1-(4-methoxyphenyl)-2-(4-sulfamoylphenyl)pyrrole] | 63 | 100 | 
21 | COc1ccc(-n2c(Br)ccc2-c2ccc(S(N)(=O)=O)cc2)cc1 [Example 98, 5-Bromo-1-(4-methoxyphenyl)-2-(4-sulfamoylphenyl)pyrrole] | 55 |  | 
22 | COc1ccc(-n2c(-c3ccc(S(N)(=O)=O)cc3)cc(C)c2Cl)cc1 [Example 99, 5-Chloro-1-(4-methoxyphenyl)-4-methyl-2-(4-sulfamoylphenyl)pyrrole] | 57 |  | 
23 | CCOc1ccc(-n2c(Cl)ccc2-c2ccc(S(N)(=O)=O)cc2)cc1 [Example 100, 5-Chloro-1-(4-ethoxyphenyl)-2-(4-sulfamoylphenyl) pyrrole] | 57 | 100 | 
24 | CSc1ccc(-n2c(Cl)ccc2-c2ccc(S(N)(=O)=O)cc2)cc1 [Example 101, 5-Chloro-1-(4-methylthiophenyl)-2-(4-sulfamoylphenyl)pyrrole] |  | 100 | 
25 | Cc1cc(-c2ccc(S(N)(=O)=O)cc2)n(-c2ccc(S)cc2)c1 [Example 129, 1-(4-Mercaptophenyl)-4-methyl-2-(4-sulfamoylphenyl)pyrrole] | 62 | 100 | 
26 | CC(=O)Sc1ccc(-n2cc(C)cc2-c2ccc(S(N)(=O)=O)cc2)cc1 [Example 130, 1-(4-Acetylthiophenyl)-4-methyl-2-(4-sulfamoylphenyl)pyrrole] | 73 | 20 | 

Reference: patent USRE39420E1, “1,2-Diphenylpyrrole derivatives, their preparation and their therapeutic uses” (Sankyo Company, Limited, priority 1996, dated 2006)
